From US10927123B2, “Modulators of the beta-3 adrenergic receptor useful for the treatment or prevention of disorders related thereto” (Arena Pharmaceuticals, Inc., priority 2016, dated 2021) come the findings set out here.

In the assay the target is Beta-3 Adrenergic Receptor (Homo sapiens (Human), UniProt P13945). Briefly: HTRF cAMP antagonist assay (IC50 determination). Format: cell-based. The following applies: CHO-K1 cells stably expressing recombinant receptor; antagonism of isoproterenol at EC90; cAMP readout. The procedure, abridged:
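In this functional readout, recombinant CHO-K1 cells received compound, then isoproterenol at its EC90. After 1 h at room temperature, cAMP levels were determined by HTRF using an on-plate standard curve, and IC50 values were fitted.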
A general note: TR-FRET usually uses a lanthanide donor and a delayed reading to cut background.

Chain of Beta-3 Adrenergic Receptor (P13945 whole entry, species assumed): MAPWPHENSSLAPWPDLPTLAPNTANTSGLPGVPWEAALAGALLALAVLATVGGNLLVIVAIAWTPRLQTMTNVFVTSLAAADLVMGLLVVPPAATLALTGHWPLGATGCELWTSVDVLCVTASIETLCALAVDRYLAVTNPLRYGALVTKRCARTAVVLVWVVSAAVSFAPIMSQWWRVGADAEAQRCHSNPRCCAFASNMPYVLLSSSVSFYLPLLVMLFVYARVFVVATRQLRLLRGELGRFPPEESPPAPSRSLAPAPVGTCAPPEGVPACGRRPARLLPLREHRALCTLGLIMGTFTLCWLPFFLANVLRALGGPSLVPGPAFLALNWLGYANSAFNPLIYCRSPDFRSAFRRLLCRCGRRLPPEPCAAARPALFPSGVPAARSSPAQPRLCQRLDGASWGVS

`O=S(=O)(c1cccc(OC[C@@H](O)CN[C@H]2COC3(CCN(S(=O)(=O)c4cnc5c(c4)CCCO5)CC3)C2)c1)C1CC1` [Compound 291, (5)-1-(3-(cyclopropylsulfonyl)phenoxy)-3-((R)-8-(3,4-dihydro-2H-pyrano[2,3-b]pyridin-6-ylsulfonyl)-1-oxa-8-azaspiro[4.5]decan-3-ylamino)propan-2-ol]: the IC50 was 0.0698 µM.
The same measure for `CCn1cc(S(=O)(=O)N2CCC3(CC2)C[C@@H](NC[C@H](O)COc2cccc(S(=O)(=O)C4(CO)CC4)c2)CO3)c(=O)c2ccccc21` [Compound 292, 1-ethyl-3-((R)-3-((S)-2-hydroxy-3-(3-(1-(hydroxymethyl)cyclopropylsulfonyl)phenoxy)propylamino)-1-oxa-8-azaspiro[4.5]decan-8-ylsulfonyl)quinolin-4(1H)-one]: 0.0902 µM.
Consider `CCn1cc(S(=O)(=O)N2CCC3(CC2)C[C@H](NC[C@H](O)COc2cccc(S(=O)(=O)C4(CO)CC4)c2)CO3)c(=O)c2ccccc21` [Compound 293, 1-ethyl-3-((S)-3-((S)-2-hydroxy-3-(3-(1-(hydroxymethyl)cyclopropylsulfonyl)phenoxy)propylamino)-1-oxa-8-azaspiro[4.5]decan-8-ylsulfonyl)quinolin-4(1H)-one], for which the IC50 was 0.13 µM.
Regarding `CCn1cc(S(=O)(=O)N2CCC3(CC2)C[C@@H](NC[C@H](O)COc2cccc(S(=O)(=O)C(C)(C)CO)c2)CO3)c(=O)c2ccccc21` [Compound 294, 1-ethyl-3-((R)-3-((S)-2-hydroxy-3-(3-(1-hydroxy-2-methylpropan-2-ylsulfonyl)phenoxy)propylamino)-1-oxa-8-azaspiro[4.5]decan-8-ylsulfonyl)quinolin-4(1H)-one], the IC50 is 0.11 µM.
In the case of `Cn1cc(S(=O)(=O)N2CCC3(CC2)C[C@@H](NC[C@H](O)COc2cccc(S(=O)(=O)C4(CO)CC4)c2)CO3)c(=O)c2ccccc21` [Compound 295, 3-((R)-3-((S)-2-hydroxy-3-(3-(1-(hydroxymethyl)cyclopropylsulfonyl)phenoxy)propylamino)-1-oxa-8-azaspiro[4.5]decan-8-ylsulfonyl)-1-methylquinolin-4(1H)-one], the IC50 is 0.143 µM.
The same measure for `CCn1cc(S(=O)(=O)N2CCC3(CC2)C[C@H](NC[C@@H](O)COc2cccc(S(C)(=O)=O)c2)CO3)c(=O)c2ccccc21` [Compound 296, 1-ethyl-3-((S)-3-((R)-2-hydroxy-3-(3-(methylsulfonyl)phenoxy)propylamino)-1-oxa-8-azaspiro[4.5]decan-8-ylsulfonyl)quinolin-4(1H)-one]: 0.107 µM; for `CCn1cc(S(=O)(=O)N2CCC3(CC2)C[C@@H](NC[C@H](O)COc2cccc(S(=O)(=O)C4CC4)c2)CO3)c(=O)c2ccccc21` [Compound 297, 3-((R)-3-((S)-3-(3-(cyclopropylsulfonyl)phenoxy)-2-hydroxypropylamino)-1-oxa-8-azaspiro[4.5]decan-8-ylsulfonyl)-1-ethylquinolin-4(1H)-one]: 0.0265 µM.
As to `CCn1cc(S(=O)(=O)N2CCC3(CC2)C[C@@H](NC[C@H](O)COc2cccc(S(=O)(=O)C(F)(F)CO)c2)CO3)c(=O)c2ccccc21` [Compound 298, 3-((R)-3-((S)-3-(3-(1,1-difluoro-2-hydroxyethylsulfonyl)phenoxy)-2-hydroxypropylamino)-1-oxa-8-azaspiro[4.5]decan-8-ylsulfonyl)-1-ethylquinolin-4(1H)-one], the half-inhibitory concentration (IC50) was determined as 0.0825 µM.
On to `CCn1cc(S(=O)(=O)N2CCC3(CC2)C[C@@H](NC[C@H](O)COc2cccc(S(=O)(=O)C(C)F)c2)CO3)c(=O)c2ccccc21` (stereo partly drawn) [Compound 299, 1-ethyl-3-((3R)-3-((2S)-3-(3-(1-fluoroethylsulfonyl)phenoxy)-2-hydroxypropylamino)-1-oxa-8-azaspiro[4.5]decan-8-ylsulfonyl)quinolin-4(1H)-one], for which the half-inhibitory concentration (IC50) worked out at 0.0443 µM.
As for `O=S(=O)(c1ccc2ccccc2c1)N1CCC2(CC1)C[C@@H](NC[C@H](O)COc1cccc(S(=O)(=O)C3(CO)CC3)c1)CO2` [Compound 300, (S)-1-(3-(1-(hydroxymethyl)cyclopropylsulfonyl)phenoxy)-3-((R)-8-(naphthalen-2-ylsulfonyl)-1-oxa-8-azaspiro[4.5]decan-3-ylamino)propan-2-ol], the IC50 stood at 0.0204 µM.
The same measure for `CCOc1c(S(=O)(=O)N2CCC3(CC2)C[C@@H](NC[C@H](O)COc2cccc(S(=O)(=O)C4(CO)CC4)c2)CO3)ccc2ccccc12` [Compound 301, (S)-1-((R)-8-(1-ethoxynaphthalen-2-ylsulfonyl)-1-oxa-8-azaspiro[4.5]decan-3-ylamino)-3-(3-(1-(hydroxymethyl)cyclopropylsulfonyl)phenoxy)propan-2-ol]: 0.357 µM; for `O=S(=O)(c1cnc2cccn2c1)N1CCC2(CC1)C[C@@H](NC[C@H](O)COc1cccc(S(=O)(=O)C3(CO)CC3)c1)CO2` [Compound 302, (S)-1-(3-(1-(hydroxymethyl)cyclopropylsulfonyl)phenoxy)-3-((R)-8-(pyrrolo[1,2-a]pyrimidin-3-ylsulfonyl)-1-oxa-8-azaspiro[4.5]decan-3-ylamino)propan-2-ol]: 0.696 µM.
With `O=S(=O)(c1cccc(OC[C@@H](O)CN[C@H]2COC3(CCN(S(=O)(=O)c4cnc5c(c4)NCCO5)CC3)C2)c1)C1CC1` [Compound 303, (S)-1-(3-(cyclopropylsulfonyl)phenoxy)-3-((R)-8-(2,3-dihydro-1H-pyrido[2,3-b][1,4]oxazin-7-ylsulfonyl)-1-oxa-8-azaspiro[4.5]decan-3-ylamino)propan-2-ol], the IC50 turned out to be 0.0171 µM.
Take `COCCN1CCOc2ncc(S(=O)(=O)N3CCC4(CC3)C[C@@H](NC[C@H](O)COc3cccc(S(=O)(=O)C5CC5)c3)CO4)cc21` [Compound 304, (S)-1-(3-(cyclopropylsulfonyl)phenoxy)-3-((R)-8-(1-(2-methoxyethyl)-2,3-dihydro-1H-pyrido[2,3-b][1,4]oxazin-7-ylsulfonyl)-1-oxa-8-azaspiro[4.5]decan-3-ylamino)propan-2-ol]: the IC50 worked out at 0.069 µM.
On to `C[C@@H]1CN(C)c2cc(S(=O)(=O)N3CCC4(CC3)C[C@@H](NC[C@H](O)COc3cccc(S(=O)(=O)C5CC5)c3)CO4)cnc2O1` [Compound 305, (S)-1-(3-(cyclopropylsulfonyl)phenoxy)-3-((R)-8-((R)-1,3-dimethyl-2,3-dihydro-1H-pyrido[2,3-b][1,4]oxazin-7-ylsulfonyl)-1-oxa-8-azaspiro[4.5]decan-3-ylamino)propan-2-ol], for which the 50% inhibitory concentration (IC50) worked out at 0.0171 µM.
The same measure for `CCn1cc(S(=O)(=O)N2CCC3(CC2)C[C@@H](NC[C@H](O)COc2cccc(S(=O)(=O)COC)c2)CO3)c(=O)c2ccccc21` [Compound 306, 1-ethyl-3-((R)-3-((S)-2-hydroxy-3-(3-(methoxymethylsulfonyl)phenoxy)propylamino)-1-oxa-8-azaspiro[4.5]decan-8-ylsulfonyl)quinolin-4(1H)-one]: 0.0629 µM; for `O=S(=O)(c1cccc(OC[C@@H](O)CN[C@H]2COC3(CCN(S(=O)(=O)c4c[nH]c5ncccc45)CC3)C2)c1)C1CC1` [Compound 307, (S)-1-((R)-8-(1H-pyrrolo[2,3-b]pyridin-3-ylsulfonyl)-1-oxa-8-azaspiro[4.5]decan-3-ylamino)-3-(3-(cyclopropylsulfonyl)phenoxy)propan-2-ol]: 0.0592 µM; for `O=S(=O)(c1cccc(OC[C@@H](O)CN[C@H]2COC3(CCN(S(=O)(=O)c4c[nH]c5ccccc45)CC3)C2)c1)C1CC1` [Compound 308, (S)-1-((R)-8-(1H-indol-3-ylsulfonyl)-1-oxa-8-azaspiro[4.5]decan-3-ylamino)-3-(3-(cyclopropylsulfonyl)phenoxy)propan-2-ol]: 0.0345 µM.
The same measure for `CS(=O)(=O)c1cccc(OC[C@@H](O)CN[C@H]2COC3(CCN(S(=O)(=O)c4c[nH]c5ccccc45)CC3)C2)c1` [Compound 311, (S)-1-((R)-8-(1H-indol-3-ylsulfonyl)-1-oxa-8-azaspiro[4.5]decan-3-ylamino)-3-(3-(methylsulfonyl)phenoxy)propan-2-ol]: 0.0435 µM; for `COCS(=O)(=O)c1cccc(OC[C@@H](O)CN[C@H]2COC3(CCN(S(=O)(=O)c4c[nH]c5ccccc45)CC3)C2)c1` [Compound 312, (S)-1-((R)-8-(1H-indol-3-ylsulfonyl)-1-oxa-8-azaspiro[4.5]decan-3-ylamino)-3-(3-(methoxymethylsulfonyl)phenoxy)propan-2-ol]: 0.0315 µM; for `O=C1Cc2cc(S(=O)(=O)N3CCC4(CC3)C[C@@H](NC[C@H](O)COc3cccc(S(=O)(=O)C5CC5)c3)CO4)cnc2N1` [Compound 313, 5-((R)-3-((S)-3-(3-(cyclopropylsulfonyl)phenoxy)-2-hydroxypropylamino)-1-oxa-8-azaspiro[4.5]decan-8-ylsulfonyl)-1H-pyrrolo[2,3-b]pyridin-2(3H)-one]: 0.141 µM.
Turning to `CCn1cc(S(=O)(=O)N2CCC3(CC2)C[C@@H](NC[C@H](O)COc2cccc(S(=O)(=O)C4CC4)c2)CO3)c(=O)c2cc(F)ccc21` [Compound 314, 3-((R)-3-((S)-3-(3-(cyclopropylsulfonyl)phenoxy)-2-hydroxypropylamino)-1-oxa-8-azaspiro[4.5]decan-8-ylsulfonyl)-1-ethyl-6-fluoroquinolin-4(1H)-one], the IC50 was found to be 0.27 µM.
For `CCn1cc(S(=O)(=O)N2CCC3(CC2)C[C@@H](NC[C@H](O)COc2cccc(S(=O)(=O)C4CC4)c2)CO3)c(=O)c2cccc(C)c21` [Compound 315, 3-((R)-3-((S)-3-(3-(cyclopropylsulfonyl)phenoxy)-2-hydroxypropylamino)-1-oxa-8-azaspiro[4.5]decan-8-ylsulfonyl)-1-ethyl-8-methylquinolin-4(1H)-one], the half-inhibitory concentration (IC50) stood at 0.0239 µM.
Turning to `CCn1cc(S(=O)(=O)N2CCC3(CC2)C[C@@H](NC[C@H](O)COc2cccc(S(=O)(=O)C4CC4)c2)CO3)c(=O)c2ccc(F)cc21` [Compound 316, 3-((R)-3-((S)-3-(3-(cyclopropylsulfonyl)phenoxy)-2-hydroxypropylamino)-1-oxa-8-azaspiro[4.5]decan-8-ylsulfonyl)-1-ethyl-7-fluoroquinolin-4(1H)-one], the IC50 worked out at 0.0638 µM.

As usually defined, the IC50 is the concentration that gives 50% inhibition.
